Source: patent US20210347709A1, “RADIOFLUORINATED GPC3-BINDING PEPTIDES FOR PET IMAGING OF HEPATOCELLULAR CARCINOMA” (University of Southern California, priority 2020, published 2021)
Read-outs that look alike come from different tables or passages of the source.

Key:
[1] = In vivo metabolic stability in HepG2 tumor-bearing mice; conditions: 1 h after intravenous injection
Description: In Vivo Metabolic Stability. HepG2 tumor-bearing mice (n=3/group) were intravenously injected with 5.55 MBq of Al[^18F]F-GP2076 or Al[^18F]F-GP2633. At 1 h after the injection, the mice were euthanized, and the HepG2 tumor, blood, liver, kidneys, and urine samples were collected. Briefly, the blood sample was immediately centrifuged for 5 min at 12,000 rpm. The HepG2 tumor, liver, and kidneys were homogenized and then centrifuged for 5 min at 12,000 rpm. The supernatant from each sample was passed through an ultrafiltration tube (Millipore, USA) and then centrifuged for 10 min at 12,000 rpm. The urine sample was diluted with 100 μl of PBS. The filtrate from each sample was injected into analytic HPLC. The HPLC eluents were collected with a fraction collector (one fraction/30 sec), and the radioactivity of each fraction was measured by gamma counting.

[2] = Measurement of lipophilicity (Log P), 1-octanol/PBS partition; type: physicochemical; conditions: 1-octanol / PBS pH 7.4, mean ± SD, n = 4
Description: Measurement of Lipophilicity (Log P). Approximately 185 kBq of Al[^18F]F-GP2076 or Al[^18F]F-GP2633 in 0.5 ml of phosphate-buffered saline (PBS) (pH 7.4) was mixed with 0.5 ml of 1-octanol. The mixture was vigorously shaken for 1 min, and then centrifuged at 12,000 rpm for 5 min to partition the organic and aqueous layers. Aliquots of 0.2 ml each layer were taken and the radioactivity was determined by gamma counting (GC-1200, USTC Chuangxin Co. Ltd. Zonkia Branch, China). The distribution coefficient P was calculated as the ratio of radioactivity in the organic phase to that in the aqueous phase. The experiment was carried out in quadruplicate.

[3] = tested on: GPC3-positive HepG2 tumor; test: MicroPET/CT imaging and biodistribution, HepG2 tumor model; type: in vivo, nude mice; conditions: for Tumor-to-liver (T/L) uptake ratio / Tumor-to-muscle (T/M) uptake ratio / Tumor-to-kidneys (T/K) uptake ratio: HepG2 (GPC3+) tumor bearing mice; for Kidneys uptake / Liver uptake / Tumor uptake: HepG2 (GPC3+) tumor model; for Kidneys uptake / Liver uptake / Tumor uptake / defluorination in vivo (from low bone uptake): PET; for Tumor uptake: decay-corrected; for clearance / excretion route from the mouse body: as visualized by PET images
Description: MicroPET/CT Imaging and Biodistribution. MicroPET/CT scans were carried out using a Siemens Inveon PET/CT scanner (Siemens, Germany). Tumor-bearing mice (n=3/group) were intravenously injected with 5.55 MBq of Al[^18F]F-GP2076 or Al[^18F]F-GP2633 under isoflurane anesthesia. A ten-minute static PET scan for each animal was acquired at 30, 60, and 120 min after the injection. 3-Dimensional ordered subset expectation maximization (3D-OSEM) algorithm was used for the PET reconstruction, and CT was applied for attenuation correction. Detailed procedures for the microPET/CT imaging and biodistribution are provided in ESM.
(§1) All animal experiments were conducted according to the guideline of the Nanfang Hospital Animal Ethics Committee at the Southern Medical University. Male or female BALB/c nude mice (about 4-6 weeks old) were obtained from the Laboratory Animal Center at Southern Medical University. The HepG2 and McA-RH7777 HCC xenografts were established by subcutaneous injection of 1×10^6 tumor cells into the left shoulder of nude mice. The animals were used for in vivo studies when the tumors reached a size of 0.5-1 cm in diameter (4-6 weeks after inoculation).
Inveon Research Workplace (IRW) 3.0 software (Siemens, Germany) was used to measure the regions of interest (ROIs) determined by superimposing the ellipsoid volume of interest (VOI) on the target tissues. The radioactivity concentrations were measured by the mean pixel intensity within each VOI and converted to dose/ml using a calibration constant. Assuming the tissue density of 1 g/ml, the ROI was then converted to dose per gram and normalized as the percent injected dose per gram (% ID/g). Tumor-to-nontarget uptake ratios, including tumor-to-muscle (T/M), tumor-to-liver (T/L), and tumor-to-kidneys (T/K) ratios, were calculated by dividing the radioactivity uptake in tumor by that in the corresponding normal tissue or organ.

HepG2 tumor = test: Ex vivo biodistribution in HepG2 tumor bearing nude mice; conditions: 1 h post-injection, gamma counting
Description: as §1
(§2) Ex vivo biodistribution was evaluated at 60 min after the tail vein injection of 1.85 MBq of Al[^18F]F-GP2076 or Al[^18F]F-GP2633. Mice were euthanized and dissected. Major tissues and organs were collected and weighed wet. The radioactivity in the tissues and organs was measured using a gamma counter. The results were presented as % ID/g. For each animal, the radioactivity of the tissue and organ samples was calibrated with a known aliquot of the injected activity. Mean uptake (% ID/g) for a group of animals was calculated with standard deviations.

[4] = as above; conditions: both sexes, BALB/c nude, mouse, iv, 1.85 MBq, total radioactivity, 1 h post-injection, gamma counting
Description: as §1, §2

[5] = In vitro stability in PBS and mouse serum; type: in vitro ADME; conditions: PBS at room temperature and mouse serum at 37° C., 2 h incubation, HPLC
Description: In Vitro Stability. The stability of Al[^18F]F-GP2076 or Al[^18F]F-GP2633 was evaluated in PBS and mouse serum. Briefly, 5.55 MBq of Al[^18F]F-GP2076 or Al[^18F]F-GP2633 was incubated with 0.5 ml of PBS at room temperature or mouse serum at 37° C. with gentle shaking. The stability test was carried out at 2 h after the incubation. For the PBS study, an aliquot of the solution was taken, and the radiochemical purity was determined by analytical HPLC. For the mouse serum study, after the addition of TFA, the mixture was passed through a 0.2-μm filter. An aliquot of the soluble fraction was taken, and the radiochemical purity was examined by analytical HPLC.

[6] = HepG2 tumor, read-out: HepG2 Tumor uptake, ex vivo biodistribution
[7] = blood, read-out: Blood uptake, ex vivo biodistribution
[8] = bone, read-out: Bone uptake, ex vivo biodistribution
[9] = brain, read-out: Brain uptake, ex vivo biodistribution
[10] = heart, read-out: Heart uptake, ex vivo biodistribution
[11] = kidneys, read-out: Kidneys uptake, ex vivo biodistribution
[12] = liver, read-out: Liver uptake, ex vivo biodistribution
[13] = muscle, read-out: Muscle uptake, ex vivo biodistribution

Structure (SMILES)	percentage of parent F-18 labeled peptide in HepG2 tumor [1] [%]	percentage of parent F-18 labeled peptide in blood [1] [%]	percentage of parent F-18 labeled peptide in kidneys [1] [%]	percentage of parent F-18 labeled peptide in liver [1] [%]	percentage of parent F-18 labeled peptide in urine [1]	logP [2]	Tumor-to-liver (T/L) uptake ratio ([3]; 30 min)	Tumor-to-muscle (T/M) uptake ratio ([3]; 30 min)	Tumor-to-kidneys (T/K) uptake ratio ([3]; 60 min)	Tumor-to-liver (T/L) uptake ratio ([3]; 60 min)	Tumor-to-muscle (T/M) uptake ratio ([3]; 60 min)	Tumor-to-liver (T/L) uptake ratio ([3]; 120 min)	Tumor-to-muscle (T/M) uptake ratio ([3]; 120 min)	Kidneys uptake ([3]; 30 min) [% ID/g]	Liver uptake ([3]; 30 min) [% ID/g]	Tumor uptake ([3]; 30 min) [% ID/g]	Kidneys uptake ([3]; 60 min) [% ID/g]	Liver uptake ([3]; 60 min) [% ID/g]	Tumor uptake ([3]; 60 min) [% ID/g]	Kidneys uptake ([3]; 120 min) [% ID/g]	other results
CC(C)C[C@H](NC(=O)[C@H](CCCNC(=N)N)NC(=S)Nc1ccc(CC2CN(CC(=O)O)CCN(CC(=O)O)CCN2CC(=O)O)cc1)C(=O)N[C@@H](CC(N)=O)C(=O)N[C@H](C(=O)NCC(=O)NCC(=O)N[C@H](C(=O)N[C@@H](Cc1ccc(O)cc1)C(=O)N[C@@H](Cc1ccccc1)C(=O)N[C@@H](CC(C)C)C(=O)N[C@H](C(=O)N[C@H](C(=O)N[C@@H](CCCNC(=N)N)C(=O)N[C@@H](CCC(N)=O)C(=O)O)[C@@H](C)O)[C@@H](C)O)[C@@H](C)O)C(C)C (single isomer, unassigned) [Al[^18F]F-GP2076]	97.69±2.51	96.68±1.55	54.94±2.12	96.06±0.54	3.31±0.20%	-2.1 ± 0.07	0.43±0.06	5.56±1.36	0.31±0.04	0.59±0.14	5.13±2.08	0.46±0.40	2.68±0.29	9.83±3.69	5.10±0.53	2.20±0.36	7.03±2.32	3.70±0.98	2.13±0.55	2.27 ± 1.07	Liver uptake ([3]; 120 min): 2.07 ± 0.96 % ID/g; Tumor uptake ([3]; 120 min): 0.73±0.32 % ID/g; defluorination in vivo (from low bone uptake) [3]: did not occur; clearance / excretion route from the mouse body [3]: primarily through the hepatic pathway; HepG2 Tumor uptake, ex vivo biodistribution (HepG2 tumor): 1.13±0.02 % ID/g; Liver uptake, ex vivo biodistribution (HepG2 tumor): 2.30±0.56 % ID/g; tissue uptake at 1 h [4, 6]: 1.13 ± 0.02 %ID/g; tissue uptake at 1 h [4, 7]: 0.36 ± 0.17 %ID/g; tissue uptake at 1 h [4, 8]: 0.29 ± 0.13 %ID/g; tissue uptake at 1 h [4, 9]: 0.1 ± 0.1 %ID/g; tissue uptake at 1 h [4, 10]: 0.36 ± 0.15 %ID/g; tissue uptake at 1 h [4, 11]: 6.37 ± 1.45 %ID/g; tissue uptake at 1 h [4, 12]: 2.3 ± 0.56 %ID/g; tissue uptake at 1 h [4, 13]: 0.24 ± 0.07 %ID/g; percentage of intact radiotracer (in vitro stability) [5]: > 95%
CC(C)C[C@H](NC(=O)[C@H](CCCNC(=N)N)NC(=O)[C@H](CC(N)=O)NC(=O)[C@H](CC(=O)O)NC(=O)[C@H](CCCNC(=N)N)NC(=O)CNC(=O)CNC(=O)CNC(=S)Nc1ccc(CC2CN(CC(=O)O)CCN(CC(=O)O)CCN2CC(=O)O)cc1)C(=O)N[C@@H](CC(N)=O)C(=O)N[C@H](C(=O)NCC(=O)NCC(=O)N[C@H](C(=O)N[C@@H](Cc1ccc(O)cc1)C(=O)N[C@@H](Cc1ccccc1)C(=O)N[C@@H](CC(C)C)C(=O)N[C@H](C(=O)N[C@H](C(=O)N[C@@H](CCCNC(=N)N)C(=O)N[C@@H](CCC(N)=O)C(=O)O)[C@@H](C)O)[C@@H](C)O)[C@@H](C)O)C(C)C (single isomer, unassigned) [Al[^18F]F-GP2633]	93.01±2.98	93.57±1.38	7.70±2.56	92.95±2.77	No parent	-2.42 ± 0.09	1.77 ±0.20	9.11±0.79	0.09±0.01	2.00±0.18	12.17±0.62	1.28±0.25	6.20±1.80	39.40±0.98	1.80±0.36	3.13±0.31	36.86±2.05	1.70±0.26	3.37±0.35	29.27 ± 3.31	Tumor-to-kidneys (T/K) uptake ratio ([3]; 30 min): 0.08 ± 0.01; Tumor-to-kidneys (T/K) uptake ratio ([3]; 120 min): 0.04 ± 0.01; Liver uptake ([3]; 120 min): 1.04 ± 0.20 % ID/g; Tumor uptake ([3]; 120 min): 1.30±0.17 % ID/g; defluorination in vivo (from low bone uptake) [3]: did not occur; clearance / excretion route from the mouse body [3]: predominantly through the renal system; HepG2 Tumor uptake, ex vivo biodistribution (HepG2 tumor): 1.96±0.29 % ID/g; Liver uptake, ex vivo biodistribution (HepG2 tumor): 0.97±0.07 % ID/g; tissue uptake at 1 h [4, 6]: 1.96 ± 0.29 %ID/g; tissue uptake at 1 h [4, 7]: 0.45 ± 0.12 %ID/g; tissue uptake at 1 h [4, 8]: 0.36 ± 0.08 %ID/g; tissue uptake at 1 h [4, 9]: 0.12 ± 0.12 %ID/g; tissue uptake at 1 h [4, 10]: 0.39 ± 0.27 %ID/g; tissue uptake at 1 h [4, 11]: 37 ± 4.7 %ID/g; tissue uptake at 1 h [4, 12]: 0.97 ± 0.07 %ID/g; tissue uptake at 1 h [4, 13]: 0.31 ± 0.05 %ID/g; percentage of intact radiotracer (in vitro stability) [5]: > 98%
